Results reported in patent US20100069248A1, “HERBICIDE COMBINATION COMPRISING DIMETHOXYTRIAZINYL SUBSTITUTED DIFLUOROMETHANESULFONYLANILIDES” (BAYER CROPSCIENCE AG, priority 2008, published 2010).

Tests used:
Assay type in all cases: in vivo
[1] = test system: Cyperus esculentus (CYPES); assay: Post-emergence action against weeds, greenhouse pots, visual scoring; conditions: 21 DAT
Protocol: (§1) Seeds or rhizome pieces of mono- and dicotyledonous harmful and useful plants were placed in peat pots (diameter 4 cm) filled with sandy loam and then covered with soil. The pots were kept in a greenhouse under optimum conditions. In addition, harmful plants encountered in paddy rice cultivation were cultivated in pots with a water level 2 cm above the soil surface.
(§2) About three weeks after the start of the cultivation, the test plants were treated at the 2- to 3-leaf stage. The herbicides, formulated as powder or liquid concentrates, were, either alone or in the combinations according to the invention, sprayed in various dosages on to the green parts of the plants using an application rate of 600 l of water/ha (converted). For further cultivation of the plants, the pots were then again kept under optimum conditions in a greenhouse.
(§3) The visual scoring of the herbicidal effects was carried out in intervals up to 21 days after the treatment. Scoring was carried out in percent in comparison to the untreated control plants. 0%=no herbicidal activity, 100%=complete herbicidal activity=complete kill.
(§4) The percentages from the treatments with the herbicides alone (=individual application) and with the combinations according to the invention (=mixtures) were employed to calculate interactions using the method of Colby. When the observed efficacies of the mixtures exceed the formal sum of the values of the tests with individual applications, they also exceed the expected value according to Colby, which is calculated using the formula below (cf. S. R. Colby; in Weeds 15 (1967) pp. 20 to 22):
(§5) • A, B=activity of components A and B in percent at a dosage of a and b g of ai/ha (=gramm of active substance per hectare), respectively. • E=expected value in % at a dosage of a+b g of ai/ha.

[2] = test system: Alopecurus myosuroides (ALOMY); assay: as above
Protocol: as §1, §2, §3, §4, §5

Setaria viridis (SETVI) = assay: as above; conditions: 21 DAT
Protocol: as §1, §2, §3, §4, §5

[3] = test system: Lolium multiflorum (LOLMU); assay: as above
Protocol: as §1, §2, §3, §4, §5

Zea mays (ZEAMX) = assay: Post-emergence action, greenhouse pots, visual scoring; conditions: component B 60 g of ai/ha
Protocol: as §1, §2, §3, §4, §5

[4] = test system: Matricaria inodora (MATIN); assay: Post-emergence action against weeds, greenhouse pots, visual scoring; conditions: 21 DAT
Protocol: as §1, §2, §3, §4, §5

Stellaria media (STEME) = assay: as above; conditions: 10 DAT
Protocol: as §1, §2, §3, §4, §5

[5] = test system: Fallopia (ex Polygonum) convolvulus (POLCO); assay: as above; conditions: 21 DAT
Protocol: as §1, §2, §3, §4, §5

Viola tricolor (VIOTR) = assay: as above
Protocol: as §1, §2, §3, §4, §5

Avena fatua (AVEFA) = assay: as above; conditions: 21 DAT, component B 60 g of ai/ha
Protocol: as §1, §2, §3, §4, §5

[6] = test system: Amaranthus retroflexus (AMARE); assay: as above; conditions: 21 DAT, component B 60 g of ai/ha
Protocol: as §1, §2, §3, §4, §5

[7] = test system: Triticum aestivum (TRZAS); assay: Post-emergence action, greenhouse pots, visual scoring; conditions: 10 DAT, component B 180 g of ai/ha
Protocol: as §1, §2, §3, §4, §5

[8] = 21 DAT, component B 60 g of ai/ha
[9] = 21 DAT, component B 180 g of ai/ha
[10] = 10 DAT, component B 60 g of ai/ha
[11] = 10 DAT, component B 180 g of ai/ha

For `COc1c(Cl)ccc(Cl)c1C(=O)O` [B1-1, 3,6-dichloro-2-methoxybenzoic acid], the “% activity found” value ([1]; component B 60 g of ai/ha) was 0%, the “% activity found” value ([1]; component B 180 g of ai/ha) was 0% and the “% activity found” value [2, 8] was 0%. For the same molecule, the “% activity found” value [2, 9] was 0%, the “% activity found” value (Setaria viridis (SETVI); component B 60 g of ai/ha) was 0% and the “% activity found” value (Setaria viridis (SETVI); component B 180 g of ai/ha) was 20%. The “% activity found” value [3, 10] was 0%, the “% activity found” value [3, 11] was 10% and the “% activity found” value [3, 8] was 0%. The “% activity found” value (Zea mays (ZEAMX); 10 DAT) was 0%.
`O=C(O)c1c(Cl)ccc2cc(Cl)cnc12` [B3-1, 3,7-dichloro-8-quinolinecarboxylic acid] was tested, and the “% activity found” value ([4]; component B 60 g of ai/ha) was 0%, the “% activity found” value ([4]; component B 180 g of ai/ha) was 0% and the “% activity found” value (Stellaria media (STEME); component B 60 g of ai/ha) was 10%. The “% activity found” value ([1]; component B 60 g of ai/ha) was 0%, the “% activity found” value ([1]; component B 180 g of ai/ha) was 0% and the “% activity found” value [2, 10] was 0%. For the same molecule, the “% activity found” value [2, 11] was 0%, the “% activity found” value [2, 8] was 0% and the “% activity found” value [2, 9] was 0%. The “% activity found” value ([5]; component B 60 g of ai/ha) was 0%, the “% activity found” value ([5]; component B 180 g of ai/ha) was 0% and the “% activity found” value (Viola tricolor (VIOTR); [11]) was 20%. The “% activity found” value (Viola tricolor (VIOTR); [8]) was 40%, the “% activity found” value (Avena fatua (AVEFA)) was 0% and the “% activity found” value [6] was 40%. The “% activity found” value [3, 10] was 0%, the “% activity found” value [3, 11] was 0% and the “% activity found” value [7] was 0%. For the same molecule, the “% activity found” value (Zea mays (ZEAMX); 10 DAT) was 0% and the “% activity found” value (Zea mays (ZEAMX); 21 DAT) was 0%.
With `COc1nc(OC)nc(C(=O)c2cccc(F)c2N(C)S(=O)(=O)C(F)F)n1` [A-1] the “% activity found” value (Stellaria media (STEME); component A 4 g of ai/ha) was 70% and the “% activity found” value (Stellaria media (STEME); component A 12 g of ai/ha) was 70%.
